Laboratory results taken from patent publication US12365677B2, “Degraders that target proteins via KEAP1” (DANA-FARBER CANCER INSTITUTE, INC., priority 2018, dated 2025).

Tests used:
Format in all cases: cell-based
[1] = test system: BRD2-BD1, BRD2-BD2, BRD3-BD1, BRD3-BD2, BRD4-BD1, BRD4-BD2 as GFP fusion proteins; assay: FACS eGFP/mCherry reporter cell lines for single bromodomains, degradation compared across bromodomains; conditions: concentration series starting at 20 μM, 5× dilution, 24 hours at 37° C.
Text: (§1) To evaluate the activity of KEAP1-BRD targeting degraders in the cell, FACS-enabled stable reporter cell lines for single Bromodomain (BD) of the BRD2, 3 and 4 proteins were developed using the pCDNA5/FRT vector of the FLp-In system and followed the manufacturer's protocol.
(§2) A DNA sequence was constructed where a single BD (BD1 or BD2) of a BRD protein was tagged at the C-terminus with an enhanced Green Fluorescent Protein (eGFP). This sequence was followed by a P2A linker and a sequence that codes for mCherry fluorescent protein. The P2A linker that is located between the eGFP-tagged protein and the mCherry causes a single cut in the backbone amide bonds of the polypeptide during the translation of the mRNA, resulting in generation of two polypeptide chains, an eGFP-tagged protein and a mCherry protein. The expression level of these two polypeptides is therefore identical as they originate from a single mRNA, making the mCherry signal an expression level reporter as an internal reference. […]
(§3) The treated cells were then harvested by trypsin digest, brought to a volume of 200 μL with DMEM medium supplemented with 10% FBS and transferred to a 96-well assay plate for FACS reading. The eGFP/RFP ratio for each condition was then calculated and normalized against the zero-compound condition and plotted. […]

BRD2BD2 = molecular target: T1, BRD2BD2 (Homo sapiens, UniProt P25440); assay: Rescue of degradation in reporter cell line by pre-treatment with inhibitors (compound 1); conditions: then concentration series of the degrader for 24 hours
T1 construct: a single BD (BD1 or BD2) of a BRD protein was tagged at the C-terminus with an enhanced Green Fluorescent Protein (eGFP); P2A linker (part left after the co-translational cut; mCherry is released as a separate chain) (C); expressed in transfected cells
T1 sequence (P25440 344-453): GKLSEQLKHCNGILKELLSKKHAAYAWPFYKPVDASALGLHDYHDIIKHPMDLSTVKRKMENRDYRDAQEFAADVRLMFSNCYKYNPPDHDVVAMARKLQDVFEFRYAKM
Text: as §1, §2
The treated cells were then harvested by trypsin digest, brought to a volume of 200 μL with DMEM medium supplemented with 10% FBS and transferred to a 96-well assay plate for FACS reading. The eGFP/RFP ratio for each condition was then calculated and normalized against the zero-compound condition and plotted.
The rescue of BRD2BD2 degradation with two inhibitors JQ1 and MLN4924 was then determined. […]

BRD3 = molecular target: T2, BRD3 (Homo sapiens, UniProt Q15059); assay: Immunoblot of MM.1S multiple myeloma cells; conditions: MM.1S cells
T2 construct: endogenous in cells; host or cells: MM.1S multiple myeloma cells
T2 sequence (Q15059 whole entry): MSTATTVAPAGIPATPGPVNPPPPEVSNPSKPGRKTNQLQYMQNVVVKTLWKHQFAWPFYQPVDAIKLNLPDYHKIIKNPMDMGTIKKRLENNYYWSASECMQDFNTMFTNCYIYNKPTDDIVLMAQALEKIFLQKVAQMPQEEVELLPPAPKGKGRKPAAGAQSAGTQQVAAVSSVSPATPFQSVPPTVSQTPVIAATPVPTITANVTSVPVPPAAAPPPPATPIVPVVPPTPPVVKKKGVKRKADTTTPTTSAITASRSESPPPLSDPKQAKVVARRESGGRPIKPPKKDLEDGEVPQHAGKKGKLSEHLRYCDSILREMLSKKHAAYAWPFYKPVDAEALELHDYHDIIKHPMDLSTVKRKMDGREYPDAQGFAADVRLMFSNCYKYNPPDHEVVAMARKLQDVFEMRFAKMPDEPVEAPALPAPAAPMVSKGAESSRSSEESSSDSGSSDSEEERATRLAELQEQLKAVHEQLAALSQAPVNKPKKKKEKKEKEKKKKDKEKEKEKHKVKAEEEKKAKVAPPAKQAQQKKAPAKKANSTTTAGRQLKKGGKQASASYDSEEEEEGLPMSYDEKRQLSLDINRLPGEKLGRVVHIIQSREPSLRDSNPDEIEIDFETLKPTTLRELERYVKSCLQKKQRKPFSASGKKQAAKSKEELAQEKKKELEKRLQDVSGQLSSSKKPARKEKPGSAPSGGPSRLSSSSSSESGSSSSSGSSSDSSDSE
Method: (§4) MM.1S multiple myeloma cells were treated with 0, 1, 5 μM bifunctional compound 1 and 9 or bifunctional compound 20 (0.5 μM, as a positive control, known degrader of BRD) for 14 or 24 h, then lysed and immunoblotted with antibodies to BRD2, BRD3, BRD4 and β-Actin.
(§5) MM.1S multiple myeloma cells were treated with 0, 1, 5 μM bifunctional compound 1 and 9 or bifunctional compound 20 (0.5 μM, as a positive control) for 14 or 24 h, then lysed and immunoblotted with antibodies to BRD2, BRD3, BRD4 and β-Actin.

BRD4 = molecular target: T3, BRD4 (Homo sapiens, UniProt O60885); assay: Immunoblot of MM.1S multiple myeloma cells; conditions: MM.1S cells
T3 construct: endogenous in cells; host or cells: MM.1S multiple myeloma cells
Method: as §4, §5

BRD2 [2] = molecular target: T4, BRD2 (Homo sapiens, UniProt P25440); assay: Immunoblot of MM.1S multiple myeloma cells; parameters: endogenous in cells; host or cells: MM.1S multiple myeloma cells; conditions: MM.1S cells
T4 sequence (P25440 whole entry): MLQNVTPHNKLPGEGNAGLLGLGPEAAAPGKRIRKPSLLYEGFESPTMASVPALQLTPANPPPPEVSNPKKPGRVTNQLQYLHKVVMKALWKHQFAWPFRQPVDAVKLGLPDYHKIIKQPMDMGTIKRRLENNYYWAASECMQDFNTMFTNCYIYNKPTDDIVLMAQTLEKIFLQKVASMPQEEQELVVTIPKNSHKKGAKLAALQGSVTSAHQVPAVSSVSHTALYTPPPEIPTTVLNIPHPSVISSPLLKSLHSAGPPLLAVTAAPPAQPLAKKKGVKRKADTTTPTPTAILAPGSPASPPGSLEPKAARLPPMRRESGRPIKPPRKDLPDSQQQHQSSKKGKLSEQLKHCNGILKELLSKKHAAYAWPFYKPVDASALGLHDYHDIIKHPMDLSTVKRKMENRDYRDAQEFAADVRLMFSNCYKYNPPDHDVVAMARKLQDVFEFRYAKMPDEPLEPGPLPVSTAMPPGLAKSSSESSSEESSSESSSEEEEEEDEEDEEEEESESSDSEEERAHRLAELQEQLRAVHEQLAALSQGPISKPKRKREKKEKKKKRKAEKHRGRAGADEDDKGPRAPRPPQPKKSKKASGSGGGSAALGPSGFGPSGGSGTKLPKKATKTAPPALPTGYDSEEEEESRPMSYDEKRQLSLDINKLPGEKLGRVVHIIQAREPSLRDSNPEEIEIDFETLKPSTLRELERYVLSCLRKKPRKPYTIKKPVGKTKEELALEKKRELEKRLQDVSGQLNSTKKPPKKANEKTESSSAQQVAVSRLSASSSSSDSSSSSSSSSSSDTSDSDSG
Method: as §4, §5

BRD2^BD1 [3] = molecular target: T5, BRD2^BD1 (Homo sapiens, UniProt P25440); assay: Rescue of degradation in reporter cell line by pre-treatment with inhibitors (compound 9); conditions: pre-treated with 10 μM JQ1 for 1 hour, then concentration series of the degrader for 24 hours
T5 construct: a single BD (BD1 or BD2) of a BRD protein was tagged at the C-terminus with an enhanced Green Fluorescent Protein (eGFP); P2A linker (part left after the co-translational cut; mCherry is released as a separate chain) (C); expressed in transfected cells
T5 sequence (P25440 74-180 limits assumed): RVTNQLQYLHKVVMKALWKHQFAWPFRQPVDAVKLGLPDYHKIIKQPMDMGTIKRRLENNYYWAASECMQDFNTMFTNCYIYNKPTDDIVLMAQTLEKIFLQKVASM
T5 sequence (Q14145 whole entry, further chain): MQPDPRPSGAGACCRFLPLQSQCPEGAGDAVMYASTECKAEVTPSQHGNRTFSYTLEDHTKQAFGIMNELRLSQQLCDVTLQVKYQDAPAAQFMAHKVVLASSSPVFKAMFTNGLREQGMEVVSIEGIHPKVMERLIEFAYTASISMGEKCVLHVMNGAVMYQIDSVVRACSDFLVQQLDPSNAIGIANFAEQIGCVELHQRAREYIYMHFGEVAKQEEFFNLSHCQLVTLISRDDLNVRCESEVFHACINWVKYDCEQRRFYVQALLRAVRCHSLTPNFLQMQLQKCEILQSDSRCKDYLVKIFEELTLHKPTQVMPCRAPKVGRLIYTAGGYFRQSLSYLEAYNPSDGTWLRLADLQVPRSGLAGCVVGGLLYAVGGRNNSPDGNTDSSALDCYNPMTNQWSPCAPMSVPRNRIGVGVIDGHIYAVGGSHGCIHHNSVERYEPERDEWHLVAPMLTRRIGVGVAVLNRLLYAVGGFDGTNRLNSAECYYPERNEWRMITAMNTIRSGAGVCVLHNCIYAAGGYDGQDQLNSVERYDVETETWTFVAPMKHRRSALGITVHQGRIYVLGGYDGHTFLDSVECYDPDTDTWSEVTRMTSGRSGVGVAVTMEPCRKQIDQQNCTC
Text: as §1
(§6) A DNA sequence was constructed where a single BD (BD1 or BD2) of a BRD protein was tagged at the C-terminus with an enhanced Green Fluorescent Protein (eGFP). This sequence was followed by a P2A linker and a sequence that codes for mCherry fluorescent protein. The P2A linker that is located between the eGFP-tagged protein and the mCherry causes a single cut in the backbone amide bonds of the polypeptide during the translation of the mRNA, resulting in generation of two polypeptide chains, an eGFP-tagged protein and a mCherry protein. The expression level of these two polypeptides is therefore identical as they originate from a single mRNA, making the mCherry signal an expression level reporter as an internal reference.
(§7) The reporter cell lines were seeded on a 48-well plate the day before. […]
as §3

BRD2^BD1 [4] = molecular target: T6, BRD2^BD1 (Homo sapiens, UniProt P25440+Q14145); assay: as above; conditions: pre-treated with 10 μM MLN4924 for 1 hour, then concentration series of the degrader for 24 hours
T6 construct: a single BD (BD1 or BD2) of a BRD protein was tagged at the C-terminus with an enhanced Green Fluorescent Protein (eGFP); P2A linker (part left after the co-translational cut; mCherry is released as a separate chain) (C); expressed in transfected cells
T6 sequence (P25440 74-180 limits assumed): as the sequence (P25440 74-180 limits assumed) above
T6 sequence (Q14145 whole entry): as the sequence (Q14145 whole entry, further chain) above
Text: as §1, §6, §7, §3

BRD2 [5] = molecular target: T4, BRD2; assay: TMT quantitative proteomics, change in relative protein abundance in HEK293T cells; parameters: endogenous in cells; host or cells: HEK293T cells; conditions: 5 μM, 6 hours
Method: Lysis buffer (8 M Urea, 50 mM NaCl, 50 mM 4-(2hydroxyethyl)-1-piperazineethanesulfonic acid (EPPS) pH 8.5. Protease and Phosphatase inhibitors from Roche) was added to the cell pellets and homogenized by 20 passes through a 21 gauge (1.25 in. long) needle to achieve a cell lysate with a protein concentration between 1-4 mg/mL. A micro-BCA assay (Pierce™) was used to determine the final protein concentration in the cell lysate. 200 μg of protein for each sample were reduced and alkylated as previously described. Proteins were precipitated using methanol/chloroform. In brief, four volumes of methanol were added to the cell lysate, followed by one volume of chloroform, and finally three volumes of water. The mixture was vortexed and centrifuged to separate the chloroform phase from the aqueous phase. […]
Precipitated protein was resuspended in 4 M urea, 50 mM HEPES pH 7.4, followed by dilution to 1 M urea with the addition of 200 mM EPPS, pH 8. […] The sample channels were combined at a 1:1:1:1:1:1:1:1:1:1 ratio, desalted using C18 solid phase extraction cartridges (Waters™) and analyzed by LC-MS for channel ratio comparison.
Samples were then combined using the adjusted volumes determined in the channel ratio analysis and dried down in a speed vacuum. […]

Row | rescue of BRD2BD2 degradation by JQ1 (BRD2BD2; pre-treated with 10 μM JQ1 for 1 hour) | degradation of BRD3 (immunoblot) (BRD3; 1 μM, both 14 and 24 h) | degradation of BRD4 (immunoblot) (BRD4; 1 μM, both 14 and 24 h) | degradation of BRD2 (immunoblot) (BRD2 [2]; 1 μM, both 14 and 24 h) | rescue of BRD2^BD1 degradation by JQ1 (BRD2^BD1 [3]) | degradation of BRD3 (immunoblot) (BRD3; 5 μM, 24 h) | degradation of BRD4 (immunoblot) (BRD4; 5 μM, 24 h) | BRD2 degradation (relative protein abundance vs DMSO) (BRD2 [5]) | degradation of BRD2 (immunoblot) (BRD2 [2]; 5 μM, 24 h) | SMILES | degradation of BRD bromodomain reporters (normalized eGFP/RFP ratio), comparison between bromodomains [1] | rescue of BRD2BD2 degradation by MLN4924 (BRD2BD2; pre-treated with 10 μM MLN4924 for 1 hour) | degradation of BRD3 (immunoblot), hook effect (BRD3; 5 μM, 14 or 24 h) | degradation of BRD4 (immunoblot), hook effect (BRD4; 5 μM, 14 or 24 h) | degradation of BRD2 (immunoblot), hook effect (BRD2 [2]; 5 μM, 14 or 24 h) | rescue of BRD2^BD1 degradation by MLN4924 (BRD2^BD1 [4])
1 | can be rescued by JQ1 | strongly induced the degradation | strongly induced the degradation | slightly decreased the abundance |  |  |  |  |  | COc1cc(C(CC(=O)O)c2ccc(C)c(CN3C[C@@H](C)Oc4cc(CCCCCCNC(=O)C[C@@H]5N=C(c6ccc(Cl)cc6)c6c(sc(C)c6C)-n6c(C)nnc65)ccc4S3(=O)=O)c2)cc2nnn(C)c12 (stereo partly drawn) [compound 1, 3-(3-(((R)-7-(6-(2-((S)-4-(4-chlorophenyl)-2,3,9-trimethyl-6H-thieno[3,2-f][1,2,4]triazolo[4,3-a][1,4]diazepin-6-yl)acetamido)hexyl)-4-methyl-1,1-dioxido-3,4-dihydro-2H-benzo[b][1,4,5]oxathiazepin-2-yl)methyl)-4-methylphenyl)-3-(7-methoxy-1-methyl-1H-benzo[d][1,2,3]triazol-5-yl)propanoic acid] | with the exception of BRD4BD1, bifunctional compound 1 targeted BRD-BD proteins with similar efficiency | rescued by the neddylation inhibitor, MLN4924 | a decrease in BRD2, BRD3 and BRD4 degradation were observed | a decrease in BRD2, BRD3 and BRD4 degradation were observed | a decrease in BRD2, BRD3 and BRD4 degradation were observed | 
2 |  |  |  |  | can be rescued by JQ1 | slightly degraded | slightly degraded | BRD2 degradation was observed | slightly degraded | COc1cc(C(CC(=O)O)c2ccc(C)c(CN(C)S(=O)(=O)c3ccc(OCCCCCCNC(=O)C[C@@H]4N=C(c5ccc(Cl)cc5)c5c(sc(C)c5C)-n5c(C)nnc54)cc3)c2)cc2nnn(C)c12 (stereo partly drawn) [compound 9, 3-(3-((4-(6-(2-((6S)-4-(4-chlorophenyl)-2,3,9-trimethyl-6H-thieno[3,2-f][1,2,4]triazolo[4,3-a][1,4]diazepin-6-yl)acetamido)hexyloxy)-N-methylphenylsulfonamido)methyl)-4-methylphenyl)-3-(7-methoxy-1-methyl-1H-benzo[d][1,2,3]triazol-5-yl)propanoic acid] | modest preference for BRD2^BD1 and BRD4^BD1 |  |  |  |  | rescued by the neddylation inhibitor, MLN4924
